Source: patent US12319655B2, “RAF kinase inhibitors and methods of use thereof” (Deciphera Pharmaceuticals, LLC, priority 2021, dated 2025)

Each compound was assayed on WM3629 cells (assay: WM3629 Cell Proliferation Assay (1)). Conditions: not given.
Format: cell-based
In the case of `CNC(=O)c1cc(-c2cc(-c3cc(NC(=O)c4cccc(C(F)(F)F)c4)cnc3C)ccn2)ccn1` [Example 52], the IC50 is reported as no more than 100 nM.
Work on `CCOc1ncc(-c2cc(NC(=O)c3ccnc(C(F)(F)F)c3)ccc2C)cc1-c1ccnc(C(=O)NC)c1` [Example 69] yielded an IC50 of no more than 100 nM.
Work on `Cc1ccc(NC(=O)c2ccnc(C(C)(C)C#N)c2)cc1-c1cccc(-c2cc(NC(=O)C3CC3)ncn2)c1` [Example 77] yielded an IC50 of no more than 100 nM.
With `Cc1ccc(NC(=O)c2ccnc(C(F)(F)F)c2)cc1-c1cccc(-c2cc(NC(=O)C3CC3)ncn2)c1` [Example 80] the IC50 was no more than 100 nM.
For `Cc1ccc(NC(=O)c2ccnc(C(C)(C)F)c2)cc1-c1cncc(-c2cc(NC(=O)C3CC3)ncn2)c1` [Example 394], the IC50 was no more than 100 nM.
For `Cc1ccc(NC(=O)c2ccnc(C3(C#N)CC3)c2)cc1-c1cncc(-c2cc(NC(=O)C3CC3)ncn2)c1` [Example 395], the IC50 was no more than 100 nM.
In the case of `Cc1ccc(NC(=O)c2ccnc(C(F)(F)F)c2)cc1-c1cncc(-c2cc(NC(=O)C3CC3)ncn2)c1` [Example 397], the IC50 is reported as no more than 100 nM.

The compounds below were run on Miapaca-2 cells (assay: MiaPaca-2 Combination Cell proliferation Assay (1) with cobimetinib). Conditions: MiaPaca-2 cell proliferation, read-out: MiaPaca-2 Combo (1) IC50.
Format: cell-based
Work on `CC(=O)Nc1cc(-c2cc(-c3cc(NC(=O)c4ccnc(C(F)(F)F)c4)ccc3C)cc(OCCO)n2)ccn1` [Example 1, N-(3-(2′-acetamido-6-(2-hydroxyethoxy)-[2,4′-bipyridin]-4-yl)-4-methylphenyl)-2-(trifluoromethyl)isonicotinamide] yielded an IC50 of no more than 100 nM.
With `CC(=O)Nc1cc(-c2cc(-c3cc(NC(=O)c4ccnc(C(F)(F)F)c4)c(F)cc3C)ccn2)ccn1` [Example 2] the IC50 was no more than 100 nM.
`Cc1ccc(NC(=O)c2ccnc(C(F)(F)F)c2)cc1-c1ccnc(-c2ccnc(NC(=O)CC#N)c2)c1` [Example 39, N-(3-(2′-(2-cyanoacetamido)-[2,4′-bipyridin]-4-yl)-4-methylphenyl)-2-(trifluoromethyl)isonicotinamide] was tested, and the IC50 was 100 to 500 nM.
For `CC(=O)Nc1cc(-c2cc(-c3cc(NC(=O)c4ccnc(C(F)(F)F)c4)ccc3C)nc(N(C)C)n2)ccn1` [Example 41, N-(3-(6-(2-acetamidopyridin-4-yl)-2-(dimethylamino)pyrimidin-4-yl)-4-methylphenyl)-2-(trifluoromethyl)isonicotinamide], the IC50 was no more than 100 nM.
Compound `Cc1ccc(NC(=O)c2ccnc(C(C)(C)C#N)c2)cc1-c1cncc(-c2ccnc3c2CC(=O)N3)n1` [Example 43] has an IC50 of 100 to 500 nM.
With `CNC(=O)c1cc(-c2cncc(-c3cc(NC(=O)c4ccnc(C(F)(F)F)c4)ccc3C)n2)ccn1` [Example 47] the IC50 was 100 to 500 nM.
For `CNC(=O)c1cc(-c2cc(-c3cc(NC(=O)c4ccnc(C(F)F)c4)ccc3C)ccn2)ccn1` [Example 48], the IC50 was no more than 100 nM.
`CNC(=O)c1cc(-c2cc(-c3cc(NC(=O)c4ccnc(C(C)(C)C#N)c4)ccc3C)ccn2)ccn1` [Example 50] gave an IC50 of no more than 100 nM.
Compound `Cc1ccc(NC(=O)c2ccnc(C(F)(F)F)c2)cc1-c1ccnc(-c2ccnc(NC(=O)C3CC3)c2)c1` [Example 54] has an IC50 of no more than 100 nM.
`COCC(=O)Nc1cc(-c2cc(-c3cc(NC(=O)c4ccnc(C(C)(C)C#N)c4)ccc3C)ccn2)ccn1` [Example 61] gave an IC50 of no more than 100 nM.
`Cc1ccc(NC(=O)c2ccnc(C(F)(F)F)c2)cc1-c1cccc(-c2ccnc(NC(=O)CC#N)c2)c1` [Example 62] was tested, and the IC50 was 100 to 500 nM.
`Cc1ccc(NC(=O)c2ccnc(C(C)(C)C#N)c2)cc1-c1ccnc(-c2ccnc(NC(=O)CC#N)c2)c1` [Example 63] gave an IC50 of 100 to 500 nM.
`CCOc1ncc(-c2cc(NC(=O)c3ccnc(C(F)(F)F)c3)ccc2C)cc1-c1ccnc(NC(C)=O)c1` [Example 68] gave an IC50 of no more than 100 nM.
With `CNC(=O)c1cc(-c2cc(-c3cc(C(=O)Nc4ccnc(C(C)(C)C#N)c4)ccc3C)ccn2)ccn1` [Example 74] the IC50 was no more than 100 nM.
Work on `Cc1ccc(NC(=O)c2ccnc(C(C)(C)C#N)c2)cc1-c1cccc(-c2cc(NC(=O)C3CC3)ncn2)c1` [Example 77] yielded an IC50 of no more than 100 nM.
With `CNC(=O)c1cc(-c2nccc(-c3cc(NC(=O)c4ccnc(C(C)(C)C#N)c4)ccc3C)n2)ccn1` [Example 78] the IC50 was no more than 100 nM.
Work on `CC(=O)Nc1cc(-c2cccc(-c3cc(NC(=O)c4ccnc(C(C)(C)C#N)c4)ccc3C)c2)ncn1` [Example 79] yielded an IC50 of no more than 100 nM.
Compound `Cc1ccc(NC(=O)c2ccnc(C(F)(F)F)c2)cc1-c1cccc(-c2cc(NC(=O)C3CC3)ncn2)c1` [Example 80] has an IC50 of no more than 100 nM.
Work on `CNC(=O)c1cc(-c2cncc(-c3cc(NC(=O)c4ccnc(C(C)(C)C#N)c4)ccc3C)n2)ccn1` [Example 86] yielded an IC50 of no more than 100 nM.
`COCC(=O)Nc1cc(-c2nccc(-c3cc(NC(=O)c4ccnc(C(C)(C)C#N)c4)ccc3C)n2)ccn1` [Example 88] showed an IC50 of no more than 100 nM.
`CC(=O)Nc1cc(-c2cc(-c3cc(NC(=O)c4ccnc(C(C)(C)C#N)c4)ccc3C)nc(C)n2)ccn1` [Example 89] was tested, and the IC50 was no more than 100 nM.
`Cc1ccc(NC(=O)c2ccnc(C(C)(C)F)c2)cc1-c1cncc(-c2cc(NC(=O)C3CC3)ncn2)c1` [Example 394] gave an IC50 of 1000 to 10000 nM.
